Experimental data reported in the OligoGym collection.
These antisense oligonucleotides have a phosphorothioate backbone; sugars and methylation of C are not fully specified.

What follows are sequences tested against BIRC2. Settings: ASO.
Further: test concentration or dose not given here.

Sequence	remaining target (mRNA or protein) (fraction of control)
TTCCCAACACCTCAAGCC	0.45
TTAGTTAGCCATAAAATT	≥ 1
TTTCTTCACATGAACTAA	≥ 1
AAATTACACTCCATAGAA	≥ 1
TACCTTGAATCTCATCAA	≥ 1
ACCTGGGAAAAGTCTTTG	≥ 1
TTAGATGGCTTCAAGTGT	0.9
TCGCTTGTAAAGGTATCT	≥ 1
TCAGGTAGGATGAGTATC	0.89
ATAATTGGTGGGTCAGCA	≥ 1
TGGTAGGTAAGAAATCTG	≥ 1
TATATGCAGGCTTCTTTC	0.77
AGGTGGATGCACTTCTGA	≥ 1
ACTTTCTTCCTAACTTTG	≥ 1
TTAAGGACTATTCAGCTA	≥ 1
TTCCTGGTTTCCAGTTCT	0.54
TTTCTCATTGGAGACGTA	0.68
CTCAGATTTGAAATGCTA	≥ 1
CATTTCTTCAGCTTGTTT	≥ 1
AATCAACTCTACTAGCCT	0.53

Sequence	remaining target (mRNA or protein) (fraction of control)
CCAGATTCTGAATAAAGC	≥ 1
GGTAACCTAAGTGCTATT	≥ 1
TAGAGTTCACAGGAAAAG	≥ 1
ATTCTTATCCACAAATAA	≥ 1
AAAAGCTAAGTTCACACA	≥ 1
ATATAGTTCACCAAACAT	≥ 1
CTAGTGTTATCAGAAACG	≥ 1
ATAACAGACCAATTACTG	≥ 1
TTCCCAGTTACTGAGCTT	0.22
TTTTACTTTGAACTGTTT	≥ 1
TAGAATTAAGAGGGTTTG	≥ 1
AAGCACTTTAACATGACA	0.85
CAATCTGACAAGATCGTG	≥ 1
TGCCTTTTATTTATATTT	≥ 1
GACCACAAGGAATAAATA	≥ 1
AAGTCAATACCCACAAGC	≥ 1
CCAAGGTGGGAGATAATG	0.97
GAGTAAGAACCACTGAAC	≥ 1
AGTGAAAAGCACCAAAGA	≥ 1
TTGGCTTAAAGTTCAAAA	≥ 1

The sequences below were run against INPPL1. Settings: ASO.

Sequence	remaining target (mRNA or protein) (fraction of control)
CCTCATAACTTTTCAACC	≥ 1
TCCAGGCAGGTAGAGTAG	≥ 1
TTGCGGCTCCCTGACCTG	≥ 1
TCTGTGACTTCCCAATCT	0.93
TGCTCCTGCCTCATCCTT	0.54
CACCCCAATAAATAGGCA	≥ 1
CTCTGGTTCTTCAAATAA	≥ 1
CAGGCGGTAGTTGAGGTC	≥ 1
TCCGTCCTGAGCCTAAAA	0.7
CAGTGGTGGAGGTGGAAA	≥ 1
TCCAAGTCCTCCTCGGTG	≥ 1
CATGGCTGATACGGTTCT	0.98
ATGTTGTCACTGCTCTGG	0.92
AGACCCACACAGAACAGT	≥ 1
GACAGCACCAGAGTAACC	0.69
TGCGGCTGGCTGTCTTCA	0.85
GGTCCTTCTCCTTCTCAA	0.52
GGAGATGAACTGGGAGGT	0.48
GGATGCGGTCGTGCGTGA	0.86
CGCTCTCGCTGTCTCGGA	≥ 1

Sequence	remaining target (mRNA or protein) (fraction of control)
AAGTAGTTTTGGTTCCTC	≥ 1
CGTTGGTGGCGGTTTCTC	0.93
GCACCAGCCGCCCACCCT	0.3
GTGGCAGATGGGACAGGG	≥ 1
AGAGCAGGGCAGCACAGA	≥ 1
GAGATACTGCCCTGACCC	≥ 1
GACATCACGCCGCAACCC	0.39
TCCCCACTGCCCACTTCC	≥ 1
CCATAGTCCGAGGGCAGT	0.88
CCATAGGATTCATAGCCA	≥ 1
AGGTGGGTGGGAAGGAGA	0.98
ACAGACCAGGAGACAGTG	0.94
CCTTGTCCACCTCACTGT	0.81
GTGCCTATGAAGACTGAG	0.4
CCAACCTCAAATGTCCCA	≥ 1
TGCCCCACCCCAACCAAC	≥ 1
TGTGCCTCCAGACTCCTC	0.59
ACGGTGGGATAGGAAGGT	≥ 1
TCCCTCCCCAGACCCACA	≥ 1
GCACCCCAGCCTCCTCCA	0.79

These sequences were tested against PTEN. Settings: ASO.

Sequence	remaining target (mRNA or protein) (fraction of control)
GGATAAATATAGGTCAAG	≥ 1
TGAAGAATGTATTTACCC	0.56
CCTCCGAACGGCTGCCTC	0.4
GTGTCAAAACCCTGTGGA	0.28
TGTTCCTATAACTGGTAA	0.42
GGTTGGCTTTGTCTTTAT	0.23
CAGATTAATAACTGTAGC	0.91
TAGCAAAACCTTTCGGAA	0.49
ACATAGCGCCTCTGACTG	0.28
TGCTAACGATCTCTTTGA	0.57
ATTGTTGCTGTGTTTCTT	0.36
GAATATATCTTCACCTTT	0.58
TGTTTCAAGCCCATTCTT	0.35
CCCGCGGCTGCTCACAGG	0.19
CAAGATCTTCACAAAAGG	≥ 1
ATGGTGACAGGCGACTCA	0.25
ATTTCTTGATCACATAGA	≥ 1
CAGGAGAAGCCGAGGAAG	0.49
TCTGGATCAGAGTCAGTG	0.56
CGGGCGCCTCGGAAGACC	0.38
TGCTAGCCTCTGGATTTG	0.26

What follows are sequences tested against RHOC. Settings: ASO.

Sequence	remaining target (mRNA or protein) (fraction of control)
CCCCTCCGACGCTTGTTC	0.34
GAGCTGAGATGAAGTCAA	0.71
GGCACCATCCCCAACGAT	0.19
AGACACTTTCCTGTGAGC	0.31
CTCCTGGTGTGCTCGTCT	0.33
CTTGTTCTTGCGGACCTG	0.28
CCTGTGAGCCAGAAGTGT	0.31
GGAGGGAACTGAAAATGG	0.87
AGGGCAGGGCATAGGCGT	0.69
CCGGCTGAAGTTCCCAGG	0.58
TGTTTTCCAGGCTGTCAG	0.41
GAAAATGGAGCCTTCAGT	0.76
CATGAGGAAGGGCAGGGC	≥ 1
CAGACCGAACGGGCTCCT	0.35
TCAAAGACAGTAGGGACG	≥ 1
TCCCACAGGCACCATCCC	0.3
GGCCATCTCAAACACCTC	0.36
ATGAGGAGGCAGGTCTTC	0.59
GGAAGGGCAGGGCATAGG	0.79
CTCCCGCACTCCCTCCTT	0.09

Sequence	remaining target (mRNA or protein) (fraction of control)
TTCCTCAGACCGAACGGG	0.43
ACTCAAGGTAGCCAAAGG	0.67
GTGTGCTCGTCTTGCCTC	0.33
TTCCTGTGAGCCAGAAGT	0.31
AGGCACCATCCCCAACGA	0.19
CTCAAACACCTCCCGCAC	0.66
TTGCTGAAGACGATGAGG	0.77
GTATGGAGCCCTCAGGAG	0.4
ACTCTGGGTCCCTACTGC	0.8
AGGTCTTCCCACAGGCAC	0.6
GCTGAAGTTCCCAGGCTG	0.75
GCAGGAGGGAACTGAAAA	0.73
TTCTCAAAGACAGTAGGG	0.98
CACTTTCCTGTGAGCCAG	0.18
TCGTCTTGCCTCAGGTCC	0.21
TAAAGTGCTGGTGTGTGA	0.61
GAGCCTTCAGTATGGAGC	0.37
TGCAGAAACAACTCCAGG	≥ 1
GGAACTGAAAATGGAGCC	0.98
AGTTCTCAAAGACAGTAG	0.62
